Measured values as given in US11602519B1, “Method for preventing myocardial infarction using eucalyptol” (KING FAISAL UNIVERSITY, priority 2021, dated 2023).

What was measured:
Assay type in all cases: in vivo, Wister rats
[1] = test system: ISO induced MI animals; test: Cardiac enzymes by ELISA in ISO-induced MI
Method: (§1) Animals were distributed into five groups randomly (n=6). The animals in normal and eucalyptol control groups were administered either saline or eucalyptol for 3 weeks and then saline (s.c) on the last two days of the experiment (20th and 21st days). The animals in the myocardial infarction (MI) control group were given saline orally for 3 weeks, then challenged with Isoproterenol (ISO) (85 mg/kg, s.c.) as stated before on the 20th and 21st days to induce MI. The animals in the eucalyptol pretreatment groups were pretreated with eucalyptol (either 100 or 200 mg/kg) orally for 3 weeks then confronted with ISO (85 mg/kg s.c.) on the last two days of the experiment. All experimental animals were killed 24 hrs after the second dose of ISO. The extracted heart tissues were homogenated in 10% phosphate buffer to be used for the measurement of numerous biochemical parameters, including cardiac enzymes, apoptotic markers, inflammatory mediators' markers, and total protein. ELISA kits were consumed to measure cardiac enzymes: CPK, CK-MB, cTnT, and cTnI; apoptotic markers: Caspase 3 and Caspase 9 and inflammatory mediators: TNF-α, IL-1β, and NFκB. All ELISA Kits were used according to the manufacturer's protocols and using a microplate reader SpectraMax i.3× (Molecular Devices, USA).

[2] = test system: TLR pathway (TLR 2, TLR 4, MYD 88, and TRIF); test: TLR pathway mRNA expression by real-time PCR in ISO-induced MI; settings: pretreatment 100, 200 mg/kg, 21 days, vs ISO induced MI control group
Method: Animals were distributed into five groups randomly (n=6). The animals in normal and eucalyptol control groups were administered either saline or eucalyptol for 3 weeks and then saline (s.c) on the last two days of the experiment (20th and 21st days). The animals in the myocardial infarction (MI) control group were given saline orally for 3 weeks, then challenged with Isoproterenol (ISO) (85 mg/kg, s.c.) as stated before on the 20th and 21st days to induce MI. The animals in the eucalyptol pretreatment groups were pretreated with eucalyptol (either 100 or 200 mg/kg) orally for 3 weeks then confronted with ISO (85 mg/kg s.c.) on the last two days of the experiment. All experimental animals were killed 24 hrs after the second dose of ISO. Real-time PCR was preformed according to known techniques. Primer sequences used in this study were as follows: Bcl-2-[…] NO: 1), Bcl-2-[…] ID NO:2), Bax-[…] NO: 3), Bax-[…] ID NO: 4), […] ID NO: 5), […] ID NO: 6), […] ID NO: 7), […] ID NO: 8), MyD88 -[…] ID NO: 9), […] ID NO: 11), […] ID NO: 12), β-[…] NO: 13), β-[…] ID NO: 14).

[3] = test system: HSP-60 and inflammatory markers (TNF-α, IL-6 and NFκB); test: HSP-60 and inflammatory mediators in ISO-induced MI
Method: as §1

[4] = test system: ISO induced MI animals; test: Heart rate and ECG recording in ISO-induced myocardial infarction; settings: for Heart Rate / P Wave / P-R interval / QRS complex / QT interval / R-R interval / ST segment: mean ± SD, n=6
Method: Animals were distributed into five groups randomly (n=6). The animals in normal and eucalyptol control groups were administered either saline or eucalyptol for 3 weeks and then saline (s.c) on the last two days of the experiment (20th and 21st days). The animals in the myocardial infarction (MI) control group were given saline orally for 3 weeks, then challenged with Isoproterenol (ISO) (85 mg/kg, s.c.) as stated before on the 20th and 21st days to induce MI. The animals in the eucalyptol pretreatment groups were pretreated with eucalyptol (either 100 or 200 mg/kg) orally for 3 weeks then confronted with ISO (85 mg/kg s.c.) on the last two days of the experiment. All experimental animals were killed 24 hrs after the second dose of ISO. At the end of the experiments, urethane-anesthetized rats (1.5 g/kg) were prone positioned to obtain uninterrupted ECG recordings using noninvasive computerized ECG apparatus from. Kent Scientific (USA). Heart rate and ECG components including ST segment, wave. QT, P-R and R-R intervals, and QRS complex were electronically measured.

[5] = test system: TLR pathway (TLR 2, TLR 4, MYD 88, and TRIF); test: TLR pathway protein expression by Western blot in cardiac tissue, ISO-induced MI
Method: Animals were distributed into five groups randomly (n=6). The animals in normal and eucalyptol control groups were administered either saline or eucalyptol for 3 weeks and then saline (s.c) on the last two days of the experiment (20th and 21st days). The animals in the myocardial infarction (MI) control group were given saline orally for 3 weeks, then challenged with Isoproterenol (ISO) (85 mg/kg, s.c.) as stated before on the 20th and 21st days to induce MI. The animals in the eucalyptol pretreatment groups were pretreated with eucalyptol (either 100 or 200 mg/kg) orally for 3 weeks then confronted with ISO (85 mg/kg s.c.) on the last two days of the experiment. All experimental animals were killed 24 hrs after the second dose of ISO. For detection of the Toll-Like Receptors pathway protein expressions, Western blot was performed according to known methods. Values were mentioned as mean SEM (n=6). Densitometry inquiry was accomplished via Image software for Western analysis. Statistical analysis appraisal was done via GraphPad Prism 5.

[6] = test system: Bax, Bcl2, Caspase 3 and 9; test: Apoptotic status within the myocardium in ISO-induced MI (Bax, Bcl-2 mRNA; Caspase 3 and 9)
Method: as §1, with “USA). Real-time PCR was preformed according to known techniques. Primer sequences used in this study were as follows: Bcl-2-[…] NO: 1), Bcl-2-[…] ID NO:2), Bax-[…] NO: 3), Bax-[…] ID NO: 4), […] ID NO: 5), […] ID NO: 6), […] ID NO: 7), […] ID NO: 8), MyD88 -[…] ID NO: 9), […] ID NO: 11), […] ID NO: 12), β-[…] NO: 13), β-[…] ID NO: 14).” for “USA).”

[7] = test system: ISO induced MI animals; test: Infarct size determination (TTC staining) in ISO-induced MI; settings: pretreatment 100, 200 mg/kg, 21 days, vs ISO induced MI group
Method: Animals were distributed into five groups randomly (n=6). The animals in normal and eucalyptol control groups were administered either saline or eucalyptol for 3 weeks and then saline (s.c) on the last two days of the experiment (20th and 21st days). The animals in the myocardial infarction (MI) control group were given saline orally for 3 weeks, then challenged with Isoproterenol (ISO) (85 mg/kg, s.c.) as stated before on the 20th and 21st days to induce MI. The animals in the eucalyptol pretreatment groups were pretreated with eucalyptol (either 100 or 200 mg/kg) orally for 3 weeks then confronted with ISO (85 mg/kg s.c.) on the last two days of the experiment. All experimental animals were killed 24 hrs after the second dose of ISO. Subsequent to ECG determination, blood samples were collected and the hearts were directly removed and balanced using an animal weighing scale prior to storage. The obtained blood samples were centrifuged and the serum from different experimental groups was frozen in −80° C. for further biochemical examinations. Frozen hearts were cut into 4-5 transverse incubated in 10% TTC (dissolved phosphate buffer, pH 7.4) for 25 min. at room temperature, fixed using 10% formaldehyde, and finally quantified using Image J® program (National Institutes of Health, University of Wisconsin).

[8] = eucalyptol control group, no ISO
[9] = pretreatment 100, 200 mg/kg, 21 days, vs ISO induced MI group
[10] = Eucalyptol 100 mg/kg orally 21 days, then ISO
[11] = Eucalyptol 200 mg/kg orally 21 days, then ISO
[12] = Eucalyptol control group, no ISO
[13] = pretreatment (100 and 200 mg/kg, 21 days) vs MI animals

Structure (SMILES): CC12CCC(CC1)C(C)(C)O2 [Eucalyptol, 1,8-cineole]
- cardiac enzymes (CPK, CK-MB, cTnT, cTnI) [1, 8]: normal
- Cardiac Tropinine I (cTnI) [1, 9]: significantly diminished
- Cardiac Tropinine T (cTnT) [1, 9]: significantly diminished
- Creatine Kinase Myocardial Bound (CK-MB) [1, 9]: significantly diminished
- Creatine Phosphokinase (CPK) [1, 9]: significantly diminished
- MYD 88 relative mRNA expression level [2]: considerably (p<0.05) declined
- TLR 2 relative mRNA expression level [2]: considerably (p<0.05) declined
- TLR 4 relative mRNA expression level [2]: considerably (p<0.05) declined
- TRIF relative mRNA expression level [2]: considerably (p<0.05) declined
- HSP-60, IL-6 and NFκB, 200 mg/kg compared with 100 mg/kg ([3]; dose of 200 mg/kg vs 100 mg/kg): further significant reduction
- TNF-α, 200 mg/kg compared with 100 mg/kg ([3]; dose of 200 mg/kg vs 100 mg/kg): non-significant difference
- HSP-60 and inflammatory markers (TNF-α, IL-6 and NFκB) [3, 8]: no effect
- myocardial infarction elevation in HSP 60 ([3]; pretreatment 100 and 200 mg/kg): diminished
- myocardial infarction elevation in inflammatory mediators (TNF-α, IL-6 and NFκB) ([3]; pretreatment 100 and 200 mg/kg): diminished
- Heart Rate ([4]; Eucalyptol 100 mg/kg orally 21 days, then ISO 85 mg/kg s.c.): 294 ± 21.06 ≠ beat/min
- P Wave [4, 10]: 0.015 ± 0.001 ≠ sec.
- P-R interval [4, 10]: 0.212 ± 0.012 ≠ sec.
- QRS complex [4, 10]: 0.038 ± 0.001 ≠ sec.
- QT interval [4, 10]: 0.064 ± 0.003 ≠ sec.
- R-R interval [4, 10]: 0.180 ± 0.004 ≠ sec.
- ST segment [4, 10]: 0.061 ± 0.009 ≠ mV
- Heart Rate ([4]; Eucalyptol 200 mg/kg orally 21 days, then ISO 85 mg/kg s.c.): 337.16 ± 14.98 ≠ beat/min
- P Wave [4, 11]: 0.015 ± 0.001 ≠ sec.
- P-R interval [4, 11]: 0.222 ± 0.05 ≠ sec.
- QRS complex [4, 11]: 0.035 ± 0.001 ≠ sec.
- QT interval [4, 11]: 0.061 ± 0.003 ≠ sec.
- R-R interval [4, 11]: 0.183 ± 0.056 ≠ sec.
- ST segment [4, 11]: 0.046 ± 0.009 ≠ mV
- P Wave [4, 12]: 0.019 ± 0.002 s
- P-R interval [4, 12]: 0.230 ± 0.012 s
- QRS complex [4, 12]: 0.042 ± 0.001 s
- QT interval [4, 12]: 0.047 ± 0.002 s
- R-R interval [4, 12]: 0.222 ± 0.012 s
- ST segment [4, 12]: 0.025 ± 0.002 mV
- Heart Rate ([4]; Eucalyptol control group: eucalyptol for 3 weeks, saline s.c. instead of ISO): 398.16 ± 43.67 beat/min
- heart rate and electrocardiographic (ECG) patterns [4, 8]: normal
- HR as well as ECG alterations [4, 9]: reversed
- TLR pathway protein content [5, 8]: no effect
- post-myocardial infarction intensification of TLR pathway protein expression (TLR 2, TLR 4, MYD 88, TRIF) ([5]; pretreatment 100 and 200 mg/kg, cardiac tissue, Western blot): lessened
- Bax, Bcl2, Caspase 3 and 9 [6, 8]: no effect
- Bax relative mRNA expression [6, 13]: deteriorated
- Bcl-2 mRNA expression [6, 13]: intensified
- Caspase 3 and 9 activities [6, 13]: deteriorated
- infarcted area magnitude (infarct size) [7]: significant infarcted restricting action
